Experimental findings from patent US10961180B2, “Branched trialkyl amine oxides” (Eastman Chemical Company, priority 2018, dated 2021) are described below.

Series [1] can be described thus: Draves Wetting Test (ASTM D2281-68), wet-out time. The class given is physicochemical. Particulars: 0.05 wt % actives in DI water, average of 3. Here is the method: The surface wetting ability of the amine oxides with linear and branched hydrophobes from Examples 43 to 45 were compared using the Draves Wetting Test (ASTM D2281-68). A 0.05 wt % (actives basis) solution of amine oxide in deionized (DI) water was used to determine the Draves wet-out time (WOT) in seconds. 0.75 g of surfactant was dispersed in 1,500 ml of DI water. The wet-out time (WOT) in seconds is recorded in Table 7 (average of 3 measurements). LAO is Lauramine oxide (linear hydrophobe), Sigma catalog number 40236.

Series [2] can be described thus: Foam height, high shear (Waring blender) in deionized water. The class given is physicochemical. Particulars: for Foam volume (ml) 5 min / Foam volume (ml) Initial: 0.05 wt % in deionized water; for Foam volume (ml) 5 min: after 5 min; for Foam volume (ml) Initial: blended High 30 s. Here is the method:
The surface foam volume and persistence of the amine oxides with linear and branched hydrophobes from Examples 43 and 44 were compared. A 0.05 wt % (actives basis) solution of the test surfactant was made in deionized water. 250 ml of the test solution was added the beaker of a Waring blender, capped, and then blended on High for 30 seconds and immediately transferred to a 1 L graduated cylinder. The total volume of foam plus liquid, as well as the liquid layer alone was recorded. The foam and liquid volumes were recorded again after 5 minutes.

Series [3] is described as follows: Salt thickening: viscosity of SLS/SLES/amine oxide formulation vs NaCl content. The class given is physicochemical. To be noted: 1.4% amine oxide, 4.3% SLS, 4.3% SLES, shear rate 3/s. Here is the method: The viscosity (cP; shear rate 3/s) of a simple formulation was measured as the salt concentration varied from 0 to 5 wt %.
Series [4] is described as follows: Stain removal in cold water, swatch brightness, simple laundry liquid. To be noted: 0.05% active additive, compared to LAO.
Description: Amine oxides with linear and branched hydrophobes were compared in a screen for stain removal in cold water. Simple laundry liquid formulations were made that included only surfactants and builder.
Standard stain swatches were purchased from Testfabrics, Inc. (West Pittston, Pa.). […] The swatches were pre-cut into 2 inch squares. The test formulation was diluted with DI water to 0.06% total surfactant to make the wash solution. Additives were added at a final concentration of 0.05% active in the wash solution. Stained fabric swatches were added to the wash solution, washed and rinsed at 20° C., and air-dried. The average swatch brightness (L*) for each treatment, and standard deviation, are reported for 3 replicates.
A further series deals with zein protein. On the set-up: species or system corn. To be noted: 1% surfactant solution, 30 C, 30 min, triplicate.
Series [5] is described as follows: Foaming in diluted commercial laundry liquid (Persil Original), Waring blender. It is filed as physicochemical. To be noted: for Difference: initial minus 5 min. Here is the method:
The surface foam volume and foam persistence of solutions of the amine oxides with linear and branched hydrophobes from Examples 25 and 26 were compared. A commercial laundry liquid was diluted in deionized water according to the dosing instructions; 4.2 ml/L Persil Original. The diluted detergent was supplemented with 0%, 2%, 5% (based on wt laundry liquid) of LAO or Branched C12 AO,(2,4-diethyl-N,N-dimethyloctan-1-amine oxide, Example 66), and the solutions mixed briefly and used immediately. 250 ml of each test solution was added the beaker of a Waring blender, capped, and then blended on High for 30 seconds and immediately transferred to a 1 L graduated cylinder. The total volume of foam plus liquid, as well as the liquid layer alone was recorded. The foam and liquid volumes were recorded again after 5 minutes. All tests were performed in triplicate.

Description for zein protein: For the test, 0.0750 g of zein protein is transferred into a 1.5 mL centrifuge tube. To this 1.5 mL of 1% surfactant solution is added, mixed, and placed in a 30 C incubator with mild stirring for 30 minutes. After 30 minutes has elapsed, the tube is centrifuged for 30 min at 3600 rpm. The solution is filtered through a pre-weighed 8 micron filter paper, and then dried overnight in a 50° C. oven. The insoluble zein residue is then weighed and the wt % Zein dissolved is calculated using the equation below. Each solution is analyzed in triplicate. The Zein score is normalized to a standard included in each set of tests, in this case LAE10; (% zein dissolved=(total zein added−total zein after drying÷Total zein added)×100).

For “4-ethyl-N,N-2-trimethyloctan-1-amine oxide [Example 43]”, in series [1], the Wet out time was greater than 300 s. In series [2], the “Foam volume (ml) 5 min” value turned out to be 0 mL and the “Foam volume (ml) Initial” value stood at 267 mL. In addition, in series [2] (foam volume, initial to 5 min), the “% decrease” value was 100%.

Turning to `CCCCC(CC)CC(C)C[N+](C)(C)[O-]` (centres unmarked) [Example 43, 4-ethyl-N,N-2-trimethyloctan-1-amine oxide], the Viscosity in series [3] (NaCl 0.5 wt %) came to 7 cP; in series [3] (NaCl 1.0 wt %), 36 cP; in series [3] (NaCl 4.0 wt %), 670 cP. For the same compound, in series [4], the “Foam in the wash solution” value is “very little foam”.

For the compound `CCCCC(CC)CC(CC)C[N+](C)(C)[O-]` (centres unmarked) [Example 44, 2,4-diethyl-N,N-dimethyloctan-1-amine oxide], in the series on zein protein, the “Zein score - normalized to LAE10” value worked out at 0.018. For the same compound, the Wet out time in series [1] is greater than 300 s. Also, in series [2], the “Foam volume (ml) 5 min” value is 0 mL and the “Foam volume (ml) Initial” value was found to be 370 mL. Moreover, the “Initial foam volume” value in series [5] (Persil Original 4.2 ml/L + 2% amine oxide (on wt laundry liquid)) was 560 mL. Further, the Difference in series [5] (Persil + 2% amine oxide) was found to be 257 mL. The Difference in series [5] (Persil + 5% amine oxide) is 280 mL.

The compound `CCCCCCCCCCCC[N+](C)(C)[O-]` [LAO, N,N-dimethyl laurylamine oxide, reference compound] came in with a Wet out time in series [1] of 33 s. The “Foam volume (ml) 5 min” value in series [2] turned out to be 500 mL. For the same compound, the Viscosity worked out at 2 cP in series [3] (NaCl 0.5 wt %) and 11 cP in series [3] (NaCl 1.0 wt %). The Difference is 54 mL in series [5] (Persil + 2% amine oxide) and 6 mL in series [5] (Persil + 5% amine oxide).

Alkylpolyglucoside [APG]: the “Zein score - normalized to LAE10” value with zein protein is listed as 0.586.

For the compound Linear alkylbenzene sulfonate [LABS], the “Zein score - normalized to LAE10” value with zein protein turned out to be 4.670.
